Results published in a melting point compilation (Tetko et al.).

Compound | melting point [°C]
Oc1ccc2ccccc2c1/N=N/c1ccc(/N=N\c2ccccc2)cc1 | 199
COc1c(OC)c(OC(C)=O)c2ccccc2c1OC(C)=O | 138
CCOC(=O)c1c(SC)nn(C(=O)NNc2ccccc2)c1N | 205
CN1CCCC1C(O)(c1ccccc1)c1ccccc1 (configuration not stated) | 66 to 69
CC12CCC(O)C=C1CCC1C2CCC2(C)C(c3ccc(=O)oc3)CCC12O (configuration not stated) | 235
Cn1cnc2ncnc(N)c21 | 323
Cc1cc(N=C2c3ccccc3CN2c2cc(C)on2)no1 | 191
COc1c(OC)c(OC(C)=O)c2cc(Cl)ccc2c1OC(C)=O | 91.5
CCCCCCCCCCCCc1ccccc1 | 3
O=C(NCOC(=O)c1ccc(OCNC(=O)c2ccccc2)cc1)c1ccccc1 | 176 to 178
CCOc1c2cccc1Cc1cccc(c1O)Cc1cccc(c1OP(=O)(OCC)OCC)Cc1cccc(c1O)C2 | 173 to 174
C=C=Cn1cnc2c(N)ncnc21 | 186
CCCCCCCCCCCCCCCCOc1ccc(C(=O)O)cc1 | 132
CC(=O)OC1(C(C)=O)CCC2(C)C(CCC3C4CCCC4(C)CCC32)C1 (configuration not stated) | 164 to 166
CCOP(=O)(OCC)OC(=CCl)c1ccc(Cl)cc1Cl | -20
CN(C)CCN | -70
CC(=O)OC1CC2C3CCC(C(C)CCCC(C)C)C3(C)CCC2C2(C)CCC(O)CC12O (configuration not stated) | 141
CC(C)(C)OC(=O)NCC1CCN(Cc2ccccc2)CC1 | 102 to 103
C[Si](C)(Cl)O[Si](C)(C)O[Si](C)(C)Cl | -53
O=C(Nc1ccc([N+](=O)[O-])cc1[N+](=O)[O-])C(F)(F)C(F)(F)C(F)(F)C(F)(F)C(F)(F)C(F)(F)C(F)(F)C(F)(F)F | 125

Compound | melting point [°C]
BrCC1CO1 (configuration not stated) | -40
COC(=O)c1scc(S(C)(=O)=O)c1-n1cccc1 | 124 to 126
Cc1ccccc1N1CSc2nnc(-c3ccccc3)n2C1 | 199
ClC1Cc2cc3c(cc21)OCO3 (configuration not stated) | 55
COc1cc(OC)c2c(=O)c(=O)c2c1 | 149
CC(=O)OC1CCCc2c(C)ccc(C)c21 (configuration not stated) | 52
CCCCCCCCCCCCCCCCCC(=O)OC(=O)CCCCCCCCCCCCCCCCC | 72
O=C(Nc1cccc(N=Nc2cccc(NC(=O)c3ccccc3)c2)c1)c1ccccc1 | 285
O=C1OC2(c3ccccc31)c1cc([N+](=O)[O-])c(O)c(Br)c1Oc1c2cc([N+](=O)[O-])c(O)c1Br | 275
CC12CC3CC(C)(C1)CC(C(=O)O)(C3)C2 | 101
CCOC(=O)C(=NOC(C)(C)C(=O)OC(C)(C)C)c1csc(N)n1 | 168 to 174
Ic1cc(I)c(I)c(I)c1I | 172
COc1ccc(F)cc1CBr | 60
Cc1cccc(C)c1NC(=O)CN(CC(=O)O)CC(=O)O | 213 to 216
Cc1cc(C)c(CSCc2c(C)cc(C)cc2C)c(C)c1 | 145 to 146
CCCCC(C)(O)CC (configuration not stated) | -83
N#Cc1ccc(N2CCCNCC2)nc1 | 63 to 65
COC(=O)c1cccc(CBr)c1 | 44
FC(F)(F)CBr | -93.9
FC(F)(F)CCCl | -106

Compound | melting point [°C]
Oc1cccnc1O | 245
O=C(Nc1ccccc1SSc1ccccc1NC(=O)c1ccccc1)c1ccccc1 | 142
N#CC1(c2ccc(F)cc2)CCCCC1 | 33 to 38
C=C(C)C(C)(C)CC | -69
OCCSCCSCCO | 64 to 68
COc1ccc(C=O)cc1O | 114
CC(C=CC=C(C)C=CC1(O)C(C)(C)CCCC1(C)O)=CC=CC=C(C)C=CC(=O)O (configuration not stated) | 213
COc1cc2c(cc1C)C(C#N)C2 (configuration not stated) | 67
ClC(Cl)(Cl)CC(Cl)(Cl)Cl | -27
C=C1C(=O)C23C(OC(C)=O)CC4C(C)(C)CCC(OC(C)=O)C4(C=O)C2C(OC(C)=O)CC1C3OC(C)=O (configuration not stated) | 212
COC(=O)CCC(C)C1CCC2C3C(=O)C(Br)C4CCCCC4(C)C3CCC12C (configuration not stated) | 123 to 124
CCOc1cccc(OCC(F)(F)F)c1C#N | 78 to 80
Cc1cccc(N/N=C(\C#N)c2nc(-c3ccc(Cl)cc3)cs2)c1C | 196
COc1cc(Br)c(CO)cc1OC | 95 to 100
NC(CP(=O)(O)O)C(=O)O (configuration not stated) | 227 to 229
O=C(C1CCCNC1)N1CCCC1 (configuration not stated) | 57 to 64
CC(CC1CCCCC1)CC1CCCCC1 | 0.6
NC(CSc1ccccn1)=NO | 100

Further lines, results first:

melting point [°C] | Compound
154 | CC1(C)C(=O)Nc2ccccc21
130 to 132 | NC(=O)c1cccc2c1OCCO2
289 | Nc1c(C=O)cc(C=O)c2nc(-c3ccccc3)c(-c3ccccc3)nc12
203 | Oc1cc(Br)ccn1
105 | Nc1ccccc1SC(=O)c1ccccc1
205 | O=C(O)C=Cc1cc(F)cc(F)c1
181 to 182 | NNC(=O)CSC1CS(=O)(=O)c2cc([N+](=O)[O-])ccc21 (configuration not stated)
211 to 213 | O=C1C=CC(=O)N1c1ccc(-c2nc3ccccc3o2)cc1
39 | CC(=O)c1cc(F)cc(F)c1
173 | c1ccc(C2Nc3ccccc3C2c2ccccc2)cc1 (configuration not stated)
84 to 86 | O=CC1=C(Cl)c2cc(Cl)ccc2SC1
160 | COc1cccc(NC(N)=S)c1
124 | Cc1cccc(N)c1C(=O)O
99 to 104 | COc1cc([N+](=O)[O-])ccc1O
249 to 251 | Cn1c(=O)n(-c2ccccc2)c(=O)c2c3c(sc21)CCCC3
166 | CC(C)=C1C(=O)NN(c2ccccc2)C1=O
192 to 193 | O=C(O)c1ccc(Cn2cccn2)cc1
20.5 | CC=CC(=O)c1ccccc1
98 | O=Cc1ccc2[nH]ccc2c1
301 | Cn1c(=O)c(C2=NNC(=O)C2=NNc2nccs2)c(O)c2ccccc21
234 to 236 | O=C(O)[C@H]1NCC[C@@H]1c1ccccc1
70 to 72 | Cn1nc(-c2ccccc2)cc1CCl
122 | O=C(O)c1ccccc1

melting point [°C] | Compound
142 | O=C(O)c1ccccc1S(=O)(=O)O
61 | Fc1ccc2ccccc2c1
143 | Cc1cc(S(=O)(=O)c2ccccc2)ccc1NS(=O)(=O)C(F)(F)F
77 to 79 | COC(=O)c1cscc1Sc1ccc(Cl)cc1
192 to 200 | O=C(O)c1cc(-c2ccccc2)on1
214 to 216 | O=C(O)c1cscc1S(=O)(=O)c1ccc(Cl)cc1
72 | O=C1Cc2c1ccc1ccccc21
171 | COc1ccc(C(=O)CCC(=O)O)cc1F
80 to 82 | O=C(OCc1ccccc1)C(=O)OCc1ccccc1
71.5 to 72.5 | Oc1ccc(Br)c(F)c1
167 | CSc1cc(-c2ccc(Cl)cc2)c2c(=O)n(-c3ccccc3)n(C)c2c1
126 to 128 | CCOC(=O)CC1Sc2ccccc2NC1=O (configuration not stated)
131 | N#CCCN1C(=O)COc2ccc(Cl)cc21
53 to 55 | O=C(c1ccccn1)c1ccccn1
289 | N#Cc1cc2c(=O)oc3ccccc3c2nc1N
248 | Nc1ccc(S(=O)(=O)Nc2cnc3ccccc3n2)cc1
150 to 160 | O=C(O)C(=Cc1cccc([N+](=O)[O-])c1)c1cccc([N+](=O)[O-])c1
90 | Nc1ncccc1I
93 to 94 | Cc1nc(-c2ccc(C(F)(F)F)cc2)sc1S(=O)(=O)Cl
73 to 74 | N#Cc1c(F)cccc1Oc1ccc(F)cc1
184 to 185 | Nc1nccc(-c2cc(-c3cccc(C(F)(F)F)c3)no2)n1
34 | O=S(=O)(Cl)c1ccc(Br)c(Br)c1
93 | N#CC1(c2ccc(F)cc2)CCC(=O)CC1

melting point [°C] | Compound
108 | COC(=O)c1c(P(c2ccccc2)c2ccccc2)ccc2ccccc12
245 to 248 | O=C(O)C=Cc1ccc(Cl)cc1Cl
69 | Cc1ccc(C(=O)/C=C/c2ccc(Br)o2)o1
135 to 137 | CC(=O)c1sc(-c2ccccc2)cc1N
27 | Ic1ccccc1I
119 | CN(C)C(=O)N(C(=O)c1ccccc1)c1ccc(Cl)c(Cl)c1
255 to 265 | c1ccc(C2=C(c3ccccc3)NC(c3ccncc3)N2)cc1
72 to 75 | Cc1nc(-c2ccccc2)c(C=O)s1
130 | O=C(Cc1ccccc1)CC(c1ccco1)N1CCCCC1 (configuration not stated)
214 | FC(F)(F)c1nc2c(Cl)c(Cl)ccc2[nH]1
280 | N#C/C(=N\Nc1ccc(Br)cc1)c1nc2ccccc2s1
281 | Cn1c(=O)c(C2=NNC(=O)C2=CNc2cccnc2)c(O)c2ccccc21
199 to 201 | Oc1nn(-c2ccc(Br)cc2)cc1Br
180 | Cc1cc(C(N)=O)ccc1Br
75 | CC(=O)N(C(C)=O)c1ccc(N=Nc2ccccc2C)cc1C
196 to 198 | Nc1nnc(SCC(=O)Nc2ccc3c(c2)OCO3)s1
106 | Cc1[nH]c2ccccc2c1C
63 | Cc1nc2cc(-c3ccccc3)ccc2o1
60.5 | Cc1ccc(C=O)c(O)c1
117 | Cl/C(=C\c1ccccc1)c1cccc2ccccc12
118 to 121 | C[C@H]1NC(=O)O[C@H]1c1ccccc1
114 | CCCCCCCCCCOc1ccc(C(=O)O)cc1
27 | CCN(CC)c1ccc(N)cc1
